Assay type in all cases: cell-based
The target in one test is T1, GLP-1 receptor (Homo sapiens, UniProt P43220).
T1 construct: expressed in transfected cells; host or cells: HEK293
Description: cAMP synthesis functional assay (firefly luciferase reporter in HEK293 cells), GLP-1 receptor.

The next test has as its target T2, GIP receptor (Homo sapiens, UniProt P48546).
T2 construct: expressed in transfected cells; host or cells: HEK293
T2 sequence (P48546 22-466): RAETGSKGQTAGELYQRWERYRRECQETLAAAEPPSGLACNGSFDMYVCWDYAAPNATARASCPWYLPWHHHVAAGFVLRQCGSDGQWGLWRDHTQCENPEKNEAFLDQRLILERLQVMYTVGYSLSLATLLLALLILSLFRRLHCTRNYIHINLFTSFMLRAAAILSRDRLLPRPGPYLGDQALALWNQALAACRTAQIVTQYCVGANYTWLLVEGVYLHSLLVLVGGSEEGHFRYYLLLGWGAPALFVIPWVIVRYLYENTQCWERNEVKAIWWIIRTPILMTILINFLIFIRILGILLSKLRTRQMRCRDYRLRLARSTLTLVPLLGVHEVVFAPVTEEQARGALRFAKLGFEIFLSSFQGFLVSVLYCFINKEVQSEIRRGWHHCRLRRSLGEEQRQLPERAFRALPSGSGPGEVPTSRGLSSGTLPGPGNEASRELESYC
Description: cAMP synthesis functional assay (firefly luciferase reporter in HEK293 cells), GIP receptor.

A further test has as its target T3, glucagon receptor (Homo sapiens, UniProt P47871).
T3 construct: expressed in transfected cells; host or cells: HEK293
The test can be described thus: cAMP synthesis functional assay (firefly luciferase reporter in HEK293 cells), glucagon receptor. As to conditions: for EC50: Glucagon Receptor EC50, nM, linear peptides with AIB at position 16 and/or 20.

In test [1] the test system is glucagon receptor, GLP-1 receptor or GIP receptor. Description: Agonist profile across receptors assigned from the cAMP reporter assay data. As to conditions: assigned from the in vitro EC50 data of Tables 1-4.
[2] abbreviates: GLP-1 Receptor EC50, nM, Table 2.
The mark [3] stands for this setting: relative to the standard (Std.) EC50 of the same run.

“Also recorded” adds a separate entry of the source. Where a SMILES comes first, the peptide text is derived from it. [ ]: non-standard residue; d: D form. Aib = CC(C)(N)C(=O)O

T1 sequence (P43220 24-463, species assumed): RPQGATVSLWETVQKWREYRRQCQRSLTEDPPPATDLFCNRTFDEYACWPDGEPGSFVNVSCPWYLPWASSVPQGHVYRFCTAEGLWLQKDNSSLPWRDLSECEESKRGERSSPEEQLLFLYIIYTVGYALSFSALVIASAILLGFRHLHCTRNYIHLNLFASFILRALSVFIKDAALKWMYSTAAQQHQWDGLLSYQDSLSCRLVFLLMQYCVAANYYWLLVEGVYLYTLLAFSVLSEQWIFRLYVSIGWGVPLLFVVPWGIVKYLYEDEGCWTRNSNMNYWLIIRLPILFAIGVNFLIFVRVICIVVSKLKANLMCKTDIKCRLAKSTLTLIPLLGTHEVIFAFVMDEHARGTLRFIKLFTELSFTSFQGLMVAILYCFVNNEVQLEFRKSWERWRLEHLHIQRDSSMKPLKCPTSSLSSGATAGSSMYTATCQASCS
T3 sequence (P47871 26-477): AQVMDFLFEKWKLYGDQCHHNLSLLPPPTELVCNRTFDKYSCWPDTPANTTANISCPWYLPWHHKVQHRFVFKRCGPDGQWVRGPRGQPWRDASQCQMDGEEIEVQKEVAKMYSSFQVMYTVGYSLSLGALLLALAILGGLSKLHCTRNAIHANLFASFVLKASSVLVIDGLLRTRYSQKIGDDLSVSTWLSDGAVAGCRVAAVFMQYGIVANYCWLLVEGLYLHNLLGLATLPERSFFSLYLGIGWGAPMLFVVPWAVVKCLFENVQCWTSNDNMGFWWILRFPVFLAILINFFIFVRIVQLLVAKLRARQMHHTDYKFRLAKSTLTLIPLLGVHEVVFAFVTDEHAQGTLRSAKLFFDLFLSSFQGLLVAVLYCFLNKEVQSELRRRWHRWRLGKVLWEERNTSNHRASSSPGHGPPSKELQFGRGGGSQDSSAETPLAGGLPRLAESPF

For `CC[C@H](C)[C@H](NC(=O)[C@H](CO)NC(=O)[C@H](Cc1ccc(O)cc1)NC(=O)[C@H](CC(=O)O)NC(=O)[C@H](CO)NC(=O)[C@@H](NC(=O)[C@H](Cc1ccccc1)NC(=O)[C@@H](NC(=O)CNC(=O)[C@H](CCC(N)=O)NC(=O)C(C)(C)NC(=O)[C@@H](N)Cc1ccc(O)cc1)[C@@H](C)O)[C@@H](C)O)C(=O)N[C@@H](Cc1ccc(O)cc1)C(=O)N[C@@H](CC(C)C)C(=O)N[C@@H](CC(=O)O)C(=O)NC(C)(C)C(=O)N[C@@H](CCC(N)=O)C(=O)N[C@@H](C)C(=O)N[C@@H](C)C(=O)N[C@@H](CCC(N)=O)C(=O)N[C@@H](CCC(=O)O)C(=O)N[C@@H](Cc1ccccc1)C(=O)N[C@H](C(=O)N[C@@H](CC(N)=O)C(=O)N[C@@H](Cc1c[nH]c2ccccc12)C(=O)N[C@@H](CC(C)C)C(=O)N[C@@H](CC(C)C)C(=O)N[C@@H](C)C(=O)NCC(=O)NCC(=O)N1CCC[C@H]1C(=O)N[C@@H](CO)C(=O)N[C@@H](CO)C(=O)NCC(=O)N[C@@H](C)C(=O)N1CCC[C@H]1C(=O)N1CCC[C@H]1C(=O)N1CCC[C@H]1C(=O)N[C@@H](CO)C(=O)N[C@@H](CS)C(N)=O)C(C)C` [mt-242] (H-Y[Aib]QGTFTSDYSIYLD[Aib]QAAQEFVNWLLAGGPSSGAPPPSC-NH2; N-terminus assumed), the EC50 was 0.102 nM on GLP-1 receptor (setting [2]); 0.078 nM at GIP receptor (GIP Receptor EC50, nM, Table 2); 1.11 nM on glucagon receptor (Table 2). Besides, the “GLP-1 Receptor relative activity” value at GLP-1 receptor (Table 2) was 29.41%. Besides, the “GIP Receptor relative activity” value at GIP receptor (Table 2) was 14.10%. For the same compound, the “Glucagon Receptor relative activity” value on glucagon receptor (Table 2) is on record as 9.58%. In addition, the “receptor activity profile (glucagon / GLP-1 / GIP agonism)” value in test [1] is reported as “exhibited activities of glucagon/GLP-1/GIP triagonists”.
For `CC[C@H](C)[C@H](NC(=O)[C@H](CO)NC(=O)[C@H](Cc1ccc(O)cc1)NC(=O)[C@H](CC(=O)O)NC(=O)[C@H](CO)NC(=O)[C@@H](NC(=O)[C@H](Cc1ccccc1)NC(=O)[C@@H](NC(=O)CNC(=O)[C@H](CCC(N)=O)NC(=O)C(C)(C)NC(=O)[C@@H](N)Cc1ccc(O)cc1)[C@@H](C)O)[C@@H](C)O)C(=O)N[C@@H](Cc1ccc(O)cc1)C(=O)N[C@@H](CC(C)C)C(=O)N[C@@H](CC(=O)O)C(=O)NC(C)(C)C(=O)N[C@@H](CCC(N)=O)C(=O)N[C@@H](C)C(=O)N[C@@H](C)C(=O)NC(C)(C)C(=O)N[C@@H](CCC(=O)O)C(=O)N[C@@H](Cc1ccccc1)C(=O)N[C@H](C(=O)N[C@@H](CC(N)=O)C(=O)N[C@@H](Cc1c[nH]c2ccccc12)C(=O)N[C@@H](CC(C)C)C(=O)N[C@@H](CC(C)C)C(=O)N[C@@H](C)C(=O)NCC(=O)NCC(=O)N1CCC[C@H]1C(=O)N[C@@H](CO)C(=O)N[C@@H](CO)C(=O)NCC(=O)N[C@@H](C)C(=O)N1CCC[C@H]1C(=O)N1CCC[C@H]1C(=O)N1CCC[C@H]1C(=O)N[C@@H](CO)C(=O)N[C@@H](CS)C(N)=O)C(C)C` [mt-250] (H-Y[Aib]QGTFTSDYSIYLD[Aib]QAA[Aib]EFVNWLLAGGPSSGAPPPSC-NH2; N-terminus assumed), the “GLP-1 Receptor relative activity” value on GLP-1 receptor (Table 2) is on record as 63.64%. At GIP receptor (Table 2), the “GIP Receptor relative activity” value turned out to be 30.65%. In addition, the “Glucagon Receptor relative activity” value on glucagon receptor (Table 2) came out at 6.30%. The “receptor activity profile (glucagon / GLP-1 / GIP agonism)” value in test [1] is recorded as “exhibited activities of glucagon/GLP-1/GIP triagonists”.
In the same order, the values of `CC[C@H](C)[C@H](NC(=O)[C@H](CO)NC(=O)[C@H](Cc1ccc(O)cc1)NC(=O)[C@H](CC(=O)O)NC(=O)[C@H](CO)NC(=O)[C@@H](NC(=O)[C@H](Cc1ccccc1)NC(=O)[C@@H](NC(=O)CNC(=O)[C@H](CCC(N)=O)NC(=O)C(C)(C)NC(=O)[C@@H](N)Cc1ccc(O)cc1)[C@@H](C)O)[C@@H](C)O)C(=O)N[C@@H](Cc1ccc(O)cc1)C(=O)N[C@@H](CC(C)C)C(=O)N[C@@H](CC(=O)O)C(=O)N[C@@H](CCC(=O)O)C(=O)N[C@@H](CCC(N)=O)C(=O)N[C@@H](C)C(=O)N[C@@H](C)C(=O)NC(C)(C)C(=O)N[C@@H](CCC(=O)O)C(=O)N[C@@H](Cc1ccccc1)C(=O)N[C@H](C(=O)N[C@@H](CC(N)=O)C(=O)N[C@@H](Cc1c[nH]c2ccccc12)C(=O)N[C@@H](CC(C)C)C(=O)N[C@@H](CC(C)C)C(=O)N[C@@H](C)C(=O)NCC(=O)NCC(=O)N1CCC[C@H]1C(=O)N[C@@H](CO)C(=O)N[C@@H](CO)C(=O)NCC(=O)N[C@@H](C)C(=O)N1CCC[C@H]1C(=O)N1CCC[C@H]1C(=O)N1CCC[C@H]1C(=O)N[C@@H](CO)C(=O)N[C@@H](CS)C(N)=O)C(C)C` [mt-251] (H-Y[Aib]QGTFTSDYSIYLDEQAA[Aib]EFVNWLLAGGPSSGAPPPSC-NH2; N-terminus assumed) are 140.00%, 57.58%, 1.52% and “exhibited activity of a GLP-1/GIP co-agonist”.
In the case of `CC[C@H](C)[C@H](NC(=O)[C@H](CO)NC(=O)[C@H](Cc1ccc(O)cc1)NC(=O)[C@H](CC(=O)O)NC(=O)[C@H](CO)NC(=O)[C@@H](NC(=O)[C@H](Cc1ccccc1)NC(=O)[C@@H](NC(=O)CNC(=O)[C@H](CCC(N)=O)NC(=O)C(C)(C)NC(=O)[C@@H](N)Cc1ccc(O)cc1)[C@@H](C)O)[C@@H](C)O)C(=O)N[C@@H](Cc1ccc(O)cc1)C(=O)N[C@@H](CC(C)C)C(=O)N[C@@H](CC(=O)O)C(=O)N[C@@H](CCCCN)C(=O)N[C@@H](CCC(N)=O)C(=O)N[C@@H](C)C(=O)N[C@@H](C)C(=O)NC(C)(C)C(=O)N[C@@H](CCC(=O)O)C(=O)N[C@@H](Cc1ccccc1)C(=O)N[C@H](C(=O)N[C@@H](CC(N)=O)C(=O)N[C@@H](Cc1c[nH]c2ccccc12)C(=O)N[C@@H](CC(C)C)C(=O)N[C@@H](CC(C)C)C(=O)N[C@@H](C)C(=O)NCC(=O)NCC(=O)N1CCC[C@H]1C(=O)N[C@@H](CO)C(=O)N[C@@H](CO)C(=O)NCC(=O)N[C@@H](C)C(=O)N1CCC[C@H]1C(=O)N1CCC[C@H]1C(=O)N1CCC[C@H]1C(=O)N[C@@H](CO)C(=O)N[C@@H](CS)C(N)=O)C(C)C` [mt-252], the EC50 at GLP-1 receptor (setting [2]) was determined as 0.018 nM; on GIP receptor (GIP Receptor EC50, nM, Table 2), 0.013 nM; on glucagon receptor (Table 2) it was 0.319 nM. Besides, the “GLP-1 Receptor relative activity” value at GLP-1 receptor (Table 2) and on GLP-1 receptor (setting [3]) was 116.67% in each case. Moreover, the “GIP Receptor relative activity” value at GIP receptor (Table 2) and on GIP receptor (setting [3]) was 146.15% each time. Further, the “Glucagon Receptor relative activity” value at glucagon receptor (Table 2) and at glucagon receptor (setting [3]) was 13.17% each time. In addition, in test [1], the “receptor activity profile (glucagon / GLP-1 / GIP agonism)” value was “exhibited activities of glucagon/GLP-1/GIP triagonists; also recorded: exhibited activity at the GIP, GLP-1, and glucagon receptors”.
With `CC[C@H](C)[C@H](NC(=O)[C@H](CO)NC(=O)[C@H](Cc1ccc(O)cc1)NC(=O)[C@H](CC(=O)O)NC(=O)[C@H](CO)NC(=O)[C@@H](NC(=O)[C@H](Cc1ccccc1)NC(=O)[C@@H](NC(=O)CNC(=O)[C@H](CCC(N)=O)NC(=O)C(C)(C)NC(=O)[C@@H](N)Cc1ccc(O)cc1)[C@@H](C)O)[C@@H](C)O)C(=O)N[C@@H](Cc1ccc(O)cc1)C(=O)N[C@@H](CC(C)C)C(=O)N[C@@H](CC(=O)O)C(=O)N[C@@H](CCCCN)C(=O)N[C@@H](CCC(N)=O)C(=O)N[C@@H](C)C(=O)N[C@@H](C)C(=O)NC(C)(C)C(=O)N[C@@H](CCC(=O)O)C(=O)N[C@@H](Cc1ccccc1)C(=O)N[C@H](C(=O)N[C@@H](CS)C(=O)N[C@@H](Cc1c[nH]c2ccccc12)C(=O)N[C@@H](CC(C)C)C(=O)N[C@@H](CC(C)C)C(=O)N[C@@H](C)C(=O)NCC(N)=O)C(C)C` [mt-257] (H-Y[Aib]QGTFTSDYSIYLDKQAA[Aib]EFVCWLLAG-NH2; N-terminus assumed), the EC50 on GLP-1 receptor (GLP-1 Receptor EC50, cAMP luciferase reporter assay as in Example 16) is 0.0303 nM; on GIP receptor (GIP Receptor EC50, cAMP luciferase reporter assay as in Example 16) it was 0.0232 nM. Besides, the “GLP-1 Receptor relative activity” value at GLP-1 receptor (setting [3]) is listed as 39.27%. The “GIP Receptor relative activity” value on GIP receptor (setting [3]) came to 41.38%. On glucagon receptor (setting [3]), the “Glucagon Receptor relative activity” value is reported as 32.53%. In test [1], the “receptor activity profile (glucagon / GLP-1 / GIP agonism)” value was “exhibited activity at the GIP, GLP-1, and glucagon receptors”.
In the case of `CC[C@H](C)[C@H](NC(=O)[C@H](CO)NC(=O)[C@H](Cc1ccc(O)cc1)NC(=O)[C@H](CC(=O)O)NC(=O)[C@H](CO)NC(=O)[C@@H](NC(=O)[C@H](Cc1ccccc1)NC(=O)[C@@H](NC(=O)CNC(=O)[C@H](CCC(N)=O)NC(=O)C(C)(C)NC(=O)[C@@H](N)Cc1ccc(O)cc1)[C@@H](C)O)[C@@H](C)O)C(=O)N[C@@H](Cc1ccc(O)cc1)C(=O)N[C@@H](CC(C)C)C(=O)N[C@@H](CC(=O)O)C(=O)N[C@@H](CCC(=O)O)C(=O)N[C@@H](CCC(N)=O)C(=O)N[C@@H](C)C(=O)N[C@@H](C)C(=O)NC(C)(C)C(=O)N[C@@H](CCC(=O)O)C(=O)N[C@@H](Cc1ccccc1)C(=O)N[C@H](C(=O)N[C@@H](CS)C(=O)N[C@@H](Cc1c[nH]c2ccccc12)C(=O)N[C@@H](CC(C)C)C(=O)N[C@@H](CC(C)C)C(=O)N[C@@H](C)C(=O)NCC(N)=O)C(C)C` [mt-258] (H-Y[Aib]QGTFTSDYSIYLDEQAA[Aib]EFVCWLLAG-NH2; N-terminus assumed), the “GLP-1 Receptor relative activity” value at GLP-1 receptor (Table 2) was 58.91%. For the same compound, the “GIP Receptor relative activity” value at GIP receptor (Table 2) is on record as 16.84%. At glucagon receptor (Table 2), the “Glucagon Receptor relative activity” value came out at 14.08%. In test [1], the “receptor activity profile (glucagon / GLP-1 / GIP agonism)” value is “exhibited activities of glucagon/GLP-1/GIP triagonists”.

Values taken from patent US9062124B2, “GIP-based mixed agonists for treatment of metabolic disorders and obesity” (priority 2008, dated 2015).
